Source: patent US9247759B2, “Identification of human T2R receptors that respond to bitter compounds that elicit the bitter taste in compositions, and the use thereof in assays to identify compounds that inhibit (block) bitter taste in compositions and use thereof” (SENOMYX, INC., priority 2007, dated 2016)
“And” between values parts separate entries of the source, which are not always exact repeats. Equal values may be shown once. Read-outs that look alike come from different tables or passages of the source.

Legend:
hT2R14 [1] = biological target: T1, hT2R14 (Homo sapiens (Human), UniProt Q9NYV8); assay: hT2R14 antagonist high-throughput FLIPR assay, stable cell line with G16g44, agonist aristolochic acid; type: cell-based
T1 sequence (Q9NYV8 whole entry): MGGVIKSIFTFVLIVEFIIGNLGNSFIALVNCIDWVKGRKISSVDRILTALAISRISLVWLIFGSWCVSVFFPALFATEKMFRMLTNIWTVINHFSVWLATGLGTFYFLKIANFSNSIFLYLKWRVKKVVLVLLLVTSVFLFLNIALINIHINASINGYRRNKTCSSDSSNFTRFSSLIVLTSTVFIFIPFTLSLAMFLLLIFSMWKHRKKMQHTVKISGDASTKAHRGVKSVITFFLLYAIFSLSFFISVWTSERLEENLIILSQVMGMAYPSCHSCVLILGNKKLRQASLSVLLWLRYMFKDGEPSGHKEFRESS
Outline: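 Compounds were co-applied with 3 μM aristolochic acid, a dose set to reach 70-80% of maximal hT2R14 activation. Read-out was FLIPR fluorescence in a stable HEK293 line co-expressing hT2R14 and G16g44.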

hT2R3 = hT2R3 (Homo sapiens (Human), UniProt Q9NYW6); assay: hT2R panel inhibition, transient HEK293 G16g44, agonist Chloroquine pH6.5 50 μM; type: cell-based; conditions: HEK293, compound at 25 μM
hT2R3, sequence (Q9NYW6 whole entry): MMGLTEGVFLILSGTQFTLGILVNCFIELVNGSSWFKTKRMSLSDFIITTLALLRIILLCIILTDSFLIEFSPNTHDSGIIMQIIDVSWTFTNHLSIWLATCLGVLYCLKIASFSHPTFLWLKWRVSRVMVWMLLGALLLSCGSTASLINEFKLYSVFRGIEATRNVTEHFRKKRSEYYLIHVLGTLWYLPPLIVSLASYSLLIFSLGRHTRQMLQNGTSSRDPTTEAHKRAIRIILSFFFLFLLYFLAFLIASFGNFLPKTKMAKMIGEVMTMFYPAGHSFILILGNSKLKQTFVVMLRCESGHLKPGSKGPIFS
Outline: (§1)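 Cells stably bearing the promiscuous G protein received one human T2R each by transient transfection and were assayed functionally. Ligands used at EC80; the test compound's inhibition equals the lowered activity.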

hT2R4 = hT2R4 (Homo sapiens (Human), UniProt Q9NYW5); assay: hT2R panel inhibition, transient HEK293 G16g44, agonist Chloroquine pH6.5 5 mM; type: cell-based; conditions: HEK293, compound at 25 μM
hT2R4, sequence (Q9NYW5 whole entry): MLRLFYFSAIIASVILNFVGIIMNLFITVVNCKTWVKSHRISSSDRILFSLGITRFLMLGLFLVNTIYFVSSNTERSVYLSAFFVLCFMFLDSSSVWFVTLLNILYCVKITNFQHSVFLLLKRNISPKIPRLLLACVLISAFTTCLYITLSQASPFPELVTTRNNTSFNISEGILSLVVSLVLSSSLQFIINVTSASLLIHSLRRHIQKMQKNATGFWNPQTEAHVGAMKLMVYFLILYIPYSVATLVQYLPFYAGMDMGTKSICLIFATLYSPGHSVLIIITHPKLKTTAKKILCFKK
Method: (§2) Specifically, in order to evaluate the inhibitory selectivity of the Compound C compound, this compound was tested against 22 human T2Rs which were deorphaned by Senomyx. These receptors and the bitter ligands that activate these human T2Rs are reported in earlier patent applications which are incorporated by reference herein. These 22 human T2Rs are hT2R1, 3, 4, 5, 7, 8, 9, 10, 13, 14, 16, 44, 51, 54, 55, 61, 63, 64, 65, 67, 71 and 75. The amino acid and nucleic acid sequences of all of these T2Rs may be found in these earlier patent applications. These human T2Rs were each individually transiently transfected into HEK293 cells that stably express the promiscuous G protein G16g44 and functional assays were effected using these receptors as disclosed in these same patent applications. […] The ligands were used at EC80 concentration levels. The list of bitter ligands utilized and the tested ligand concentrations are contained in Table 5 of this example.
(§3) Relating to the foregoing, FIG. 5 contains experimental results wherein Compound C was tested with different agonist compounds. The inhibition activity is represented by the reduction of receptor activity in the presence of Compound C. […] These 13 hT2Rs are hT2R3, 7, 10, 14, 16, 44, 51, 55, 61, 63, 64, 65, and 71.

hT2R7 = hT2R7 (Homo sapiens (Human), UniProt Q9NYW3); assay: hT2R panel inhibition, transient HEK293 G16g44, agonist Chloroquine pH6.5 10 mM; type: cell-based; conditions: HEK293, compound at 25 μM
hT2R7, sequence (Q9NYW3 whole entry): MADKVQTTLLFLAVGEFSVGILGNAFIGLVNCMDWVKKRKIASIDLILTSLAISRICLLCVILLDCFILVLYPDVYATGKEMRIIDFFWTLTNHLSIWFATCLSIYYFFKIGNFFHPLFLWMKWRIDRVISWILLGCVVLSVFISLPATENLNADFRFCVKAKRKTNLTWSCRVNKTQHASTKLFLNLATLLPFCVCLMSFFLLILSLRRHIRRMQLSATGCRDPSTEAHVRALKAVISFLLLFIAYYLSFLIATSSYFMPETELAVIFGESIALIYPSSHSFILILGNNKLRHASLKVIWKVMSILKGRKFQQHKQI
Outline: as §1

hT2R14 [2] = biological target: T1, hT2R14; assay: hT2R panel inhibition, transient HEK293 G16g44, agonist Aristolochic Acid 2 μM; type: cell-based; conditions: HEK293, compound at 25 μM
Outline: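 Agonist challenge was at EC80, with 0.5 mM andrographolide on hT2R8 and 2 μM aristolochic acid on hT2R14. Inhibition was measured in functional assays in HEK293 cells that stably carry the promiscuous G protein G16g44 and were transiently transfected with the individual receptor.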

hT2R16 = hT2R16 (Homo sapiens (Human), UniProt Q9NYV7); assay: hT2R panel inhibition, transient HEK293 G16g44, agonist Salicin 1 mM; type: cell-based; conditions: HEK293, compound at 25 μM
hT2R16, sequence (Q9NYV7 whole entry): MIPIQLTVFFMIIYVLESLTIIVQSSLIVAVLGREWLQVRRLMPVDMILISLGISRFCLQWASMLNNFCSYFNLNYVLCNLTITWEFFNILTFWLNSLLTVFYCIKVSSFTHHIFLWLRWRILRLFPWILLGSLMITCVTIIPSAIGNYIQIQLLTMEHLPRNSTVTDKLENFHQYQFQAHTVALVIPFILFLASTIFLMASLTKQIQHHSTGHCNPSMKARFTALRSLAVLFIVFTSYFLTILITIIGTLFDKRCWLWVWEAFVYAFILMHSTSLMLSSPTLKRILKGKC
Outline: as §1

hT2R44 = assay: hT2R panel inhibition, transient HEK293 G16g44, agonist Denatonium 0.5 μM; type: cell-based, human; conditions: compound at 25 μM; for screening result against bitter receptor 44: receptor activated to EC80 with the corresponding agonist
Outline: as §1

hT2R54 = assay: hT2R panel inhibition, transient HEK293 G16g44, agonist Ranitidine 5 mM; type: cell-based, human; conditions: compound at 25 μM
Outline: as §1

hT2R55 = assay: hT2R panel inhibition, transient HEK293 G16g44, agonist Cinchonine 150 μM; type: cell-based, human; conditions: compound at 25 μM; for screening result against bitter receptor 55: receptor activated to EC80 with the corresponding agonist
Outline: as §1

hT2R61 = hT2R61 (Homo sapiens (Human), UniProt P59537); assay: hT2R panel inhibition, transient HEK293 G16g44, agonist Aristolochic Acid 25 nM; type: cell-based; conditions: HEK293, compound at 25 μM
hT2R61, sequence (P59537 whole entry): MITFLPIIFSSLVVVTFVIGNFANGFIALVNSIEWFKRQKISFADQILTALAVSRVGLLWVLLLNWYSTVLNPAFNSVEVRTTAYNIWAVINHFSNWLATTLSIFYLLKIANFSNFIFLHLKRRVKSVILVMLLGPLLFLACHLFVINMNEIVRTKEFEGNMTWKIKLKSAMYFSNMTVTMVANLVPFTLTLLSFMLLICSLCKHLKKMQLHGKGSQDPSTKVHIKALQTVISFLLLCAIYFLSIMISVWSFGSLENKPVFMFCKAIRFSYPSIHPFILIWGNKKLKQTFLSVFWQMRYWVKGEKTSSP
Outline: as §1

hT2R65 = assay: hT2R panel inhibition, transient HEK293 G16g44, agonist Oleuropein 1 mM; type: cell-based, human; conditions: compound at 25 μM; for screening result against bitter receptor 65: receptor activated to EC80 with the corresponding agonist
Outline: as §1

hT2R71 = hT2R71 (Homo sapiens (Human), UniProt P59536); assay: hT2R panel inhibition, transient HEK293 G16g44, agonist Picric Acid 10 μM; type: cell-based; conditions: HEK293, compound at 25 μM
hT2R71, sequence (P59536 whole entry): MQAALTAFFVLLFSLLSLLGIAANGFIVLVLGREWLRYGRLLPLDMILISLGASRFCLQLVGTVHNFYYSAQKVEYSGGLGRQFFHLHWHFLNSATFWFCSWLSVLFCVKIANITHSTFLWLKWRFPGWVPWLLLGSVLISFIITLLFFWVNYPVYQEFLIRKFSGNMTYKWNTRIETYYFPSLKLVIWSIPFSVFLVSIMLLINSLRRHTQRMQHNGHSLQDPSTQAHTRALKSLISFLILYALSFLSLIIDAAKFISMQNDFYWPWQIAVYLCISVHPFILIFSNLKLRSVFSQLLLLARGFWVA
Outline: as §1

hT2R75 = hT2R75 (Homo sapiens (Human), UniProt P59540); assay: hT2R panel inhibition, transient HEK293 G16g44, agonist Strychnine 1 μM; type: cell-based; conditions: HEK293, read-out: screening result against bitter receptor 75, compound at 25 μM; receptor activated to EC80 with the corresponding agonist
hT2R75, sequence (P59540 whole entry): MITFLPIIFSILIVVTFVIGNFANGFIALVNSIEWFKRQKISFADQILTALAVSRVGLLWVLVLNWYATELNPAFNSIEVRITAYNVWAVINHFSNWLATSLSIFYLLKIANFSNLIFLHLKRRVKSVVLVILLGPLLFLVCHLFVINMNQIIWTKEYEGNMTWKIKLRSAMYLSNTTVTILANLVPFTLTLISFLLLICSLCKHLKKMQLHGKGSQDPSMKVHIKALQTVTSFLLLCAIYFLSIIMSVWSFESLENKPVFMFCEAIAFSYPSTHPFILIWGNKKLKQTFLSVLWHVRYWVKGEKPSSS
Method: as §2, §3

hT2R10 = hT2R10 (Homo sapiens (Human), UniProt Q9NYW0); assay: hT2R panel inhibition, transient HEK293 G16g44, agonist Strychnine 50 μM; type: cell-based
hT2R10, sequence (Q9NYW0 whole entry): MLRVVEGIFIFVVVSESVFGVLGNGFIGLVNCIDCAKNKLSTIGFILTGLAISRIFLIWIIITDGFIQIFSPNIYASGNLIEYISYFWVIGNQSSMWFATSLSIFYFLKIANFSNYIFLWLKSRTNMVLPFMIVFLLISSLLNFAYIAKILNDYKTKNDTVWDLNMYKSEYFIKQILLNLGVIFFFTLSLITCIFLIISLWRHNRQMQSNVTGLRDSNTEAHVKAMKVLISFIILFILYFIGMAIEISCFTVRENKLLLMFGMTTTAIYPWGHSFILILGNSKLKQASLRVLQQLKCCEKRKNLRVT

hT2R63 = assay: hT2R panel inhibition, transient HEK293 G16g44, agonist Caffeine 1 mM or Andrographolide 100 μM; type: cell-based, human; conditions: compound at 25 μM; for screening result against bitter receptor 63: receptor activated to EC80 with the corresponding agonist
Outline: as §1

hT2R64 = hT2R64 (Homo sapiens (Human), UniProt P59538); assay: hT2R panel inhibition, transient HEK293 G16g44, agonist Aristolochic Acid 1 μM; type: cell-based; conditions: HEK293, compound at 25 μM
hT2R64, sequence (P59538 whole entry): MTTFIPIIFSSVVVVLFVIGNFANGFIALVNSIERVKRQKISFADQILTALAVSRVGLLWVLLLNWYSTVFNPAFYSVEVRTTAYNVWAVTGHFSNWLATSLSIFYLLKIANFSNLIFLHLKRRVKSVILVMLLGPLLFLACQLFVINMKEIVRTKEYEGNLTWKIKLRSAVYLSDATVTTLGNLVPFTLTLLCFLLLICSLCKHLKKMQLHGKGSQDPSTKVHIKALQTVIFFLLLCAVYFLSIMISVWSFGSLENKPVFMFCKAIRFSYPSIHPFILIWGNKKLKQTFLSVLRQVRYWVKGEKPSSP
Outline: as §1

hT2R67 = assay: hT2R panel inhibition, transient HEK293 G16g44, agonist Andrographolide 5 μM; type: cell-based, human; conditions: compound at 25 μM
Outline: as §1

hT2R5 = hT2R5 (Homo sapiens (Human), UniProt Q9NYW4); assay: hT2R panel inhibition, transient HEK293 G16g44, agonist Picoline 10 mM; type: cell-based; conditions: HEK293, compound at 25 μM; receptor activated to EC80 with agonist; read-out: inhibition of bitter receptor 5
hT2R5, sequence (Q9NYW4 whole entry): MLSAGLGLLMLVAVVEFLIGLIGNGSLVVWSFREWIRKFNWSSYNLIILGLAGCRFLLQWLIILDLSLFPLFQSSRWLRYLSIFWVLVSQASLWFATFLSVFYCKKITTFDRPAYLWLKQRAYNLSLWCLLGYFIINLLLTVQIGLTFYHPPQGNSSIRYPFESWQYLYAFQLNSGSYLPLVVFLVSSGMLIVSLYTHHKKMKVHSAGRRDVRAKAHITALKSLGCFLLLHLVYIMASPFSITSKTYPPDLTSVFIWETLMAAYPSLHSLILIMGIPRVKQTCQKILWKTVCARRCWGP
Outline: as §1

hT2R51 = hT2R51 (Homo sapiens (Human), UniProt P59533); assay: hT2R panel inhibition, transient HEK293 G16g44, agonist Prop 2.5 μM; type: cell-based; conditions: HEK293, compound at 25 μM; receptor activated to EC80 with agonist; read-out: inhibition of bitter receptor 51
hT2R51, sequence (P59533 whole entry): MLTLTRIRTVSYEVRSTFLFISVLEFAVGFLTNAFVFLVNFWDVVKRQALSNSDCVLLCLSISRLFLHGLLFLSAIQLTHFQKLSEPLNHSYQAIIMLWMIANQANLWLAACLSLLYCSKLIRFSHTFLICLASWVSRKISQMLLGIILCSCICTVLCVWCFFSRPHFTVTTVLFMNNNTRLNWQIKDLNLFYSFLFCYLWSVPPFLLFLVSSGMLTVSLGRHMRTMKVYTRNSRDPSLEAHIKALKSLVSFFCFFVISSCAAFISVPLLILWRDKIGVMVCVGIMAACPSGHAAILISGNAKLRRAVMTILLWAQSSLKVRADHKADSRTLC
Outline: as §1

[3] = read-out: IC50 on hT2R14 bitter receptor
[4] = receptor activated to EC80 with the corresponding agonist, read-out: screening result against bitter receptor 3
[5] = receptor activated to EC80 with the corresponding agonist, class symbols, read-out: screening result against bitter receptor 4
[6] = receptor activated to EC80 with the corresponding agonist, read-out: screening result against bitter receptor 7
[7] = receptor activated to EC80 with the corresponding agonist, read-out: screening result against bitter receptor 14
[8] = receptor activated to EC80 with the corresponding agonist, read-out: screening result against bitter receptor 16
[9] = receptor activated to EC80 with the corresponding agonist
[10] = receptor activated to EC80 with the corresponding agonist, read-out: screening result against bitter receptor 61
[11] = receptor activated to EC80 with the corresponding agonist, read-out: screening result against bitter receptor 71
[12] = HEK293, read-out: screening result against bitter receptor 10, compound at 25 μM, receptor activated to EC80 with the corresponding agonist
[13] = receptor activated to EC80 with the corresponding agonist, read-out: screening result against bitter receptor 64
[14] = receptor activated to EC80 with agonist

SMILES	IC50 (hT2R14 [1]; [3])	inhibition at 25 µM (hT2R3; [4]) [%]	inhibition at 25 µM (hT2R4; [5]) [%]	inhibition at 25 µM (hT2R7; [6]) [%]	inhibition at 25 µM (hT2R14 [2]; [7]) [%]	inhibition at 25 µM (hT2R16; [8]) [%]	screening result against bitter receptor 44 (hT2R44)	screening result against bitter receptor 55 (hT2R55)	inhibition at 25 µM (hT2R61; [10]) [%]	screening result against bitter receptor 65 (hT2R65)	inhibition at 25 µM (hT2R71; [11]) [%]	inhibition at 25 µM (hT2R75) [%]	inhibition at 25 µM (hT2R10; [12]) [%]	screening result against bitter receptor 63 (hT2R63)	inhibition at 25 µM (hT2R64; [13]) [%]	also measured
CCCN(Cc1ccc(OC)cc1)S(=O)(=O)c1ccc(C(=O)O)cc1 [Example 5-17, 4-(N-(4-methoxybenzyl)-N-propylsulfamoyl)benzoic acid]	3.75 µM	20 to 40	20 to 40	20 to 40	> 80	20 to 40	+++ (60% to 80% inhibition = +++)	++++ (80% or greater inhibition = ++++)	> 80	++ (40% to 60% inhibition = ++)	40 to 60	20 to 40	–	–	–	screening result against bitter receptor 54 (hT2R54; [9]): ++ (40% to 60% inhibition = ++)
CCN(Cc1ccc(OC)cc1)S(=O)(=O)c1ccc(C(=O)O)cc1 [Example 5-4, 4-(N-ethyl-N-(4-methoxybenzyl)sulfamoyl)benzoic acid]	20 µM and 10 µM	–	20 to 40	–	40 to 60	–	–	++++ (80% or greater inhibition = ++++)	20 to 40	–	–	20 to 40	40 to 60	+++ (60% to 80% inhibition = +++)	> 80	–
COc1ccccc1CN(Cc1ccco1)S(=O)(=O)c1ccc(C(=O)O)cc1 [Example 5-7, 4-(N-(furan-2-ylmethyl)-N-(2-methoxybenzyl)sulfamoyl)benzoic acid]	12 µM	20 to 40	20 to 40	20 to 40	40 to 60	–	++ (40% to 60% inhibition = ++)	++++ (80% or greater inhibition = ++++)	> 80	–	40 to 60	20 to 40	20 to 40	++++ (80% or greater inhibition = ++++)	> 80	screening result against bitter receptor 67 (hT2R67; [9]): + (20% to 40% inhibition = +)
O=C(O)C1CCC(CN(Cc2ccc(F)cc2)S(=O)(=O)c2ccccc2)CC1 (stereo not shown) [Example 5-22, 4-((N-(4-fluorobenzyl)phenylsulfonamido)methyl)-cyclohexanecarboxylic acid]	0.24 µM	40 to 60	40 to 60	20 to 40	> 80	20 to 40	++ (40% to 60% inhibition = ++)	+++ (60% to 80% inhibition = +++)	> 80	–	40 to 60	20 to 40	20 to 40	+++ (60% to 80% inhibition = +++)	40 to 60	–
O=C(O)C1CCC(CN(Cc2ccc(F)cc2)S(=O)(=O)c2cccs2)CC1 (stereo not shown) [Example 5-51, 4-((N-(4-fluorobenzyl)thiophene-2-sulfonamido)methyl)cyclohexanecarboxylic acid]	–	40 to 60	20 to 40	20 to 40	> 80	20 to 40	++ (40% to 60% inhibition = ++)	+++ (60% to 80% inhibition = +++)	> 80	+ (20% to 40% inhibition = +)	40 to 60	20 to 40	20 to 40	+++ (60% to 80% inhibition = +++)	40 to 60	IC50 (hT2R14 [1]; Table C, read-out: hT2R14 IC50): 0.342 µM
CCOc1ccc(CN(Cc2ccccc2)S(=O)(=O)c2ccc(C(=O)O)cc2)cc1 [Example 5-108, 4-(N-benzyl-N-(4-ethoxybenzyl)sulfamoyl)benzoic acid]	–	–	–	–	–	–	–	–	–	–	–	–	–	–	–	inhibition at 25 µM (hT2R3; receptor activated to EC80 with agonist, read-out: inhibition of bitter receptor 3): 40 to 60%; inhibition at 25 µM (hT2R4; receptor activated to EC80 with agonist, read-out: inhibition of bitter receptor 4): 60 to 80%; inhibition at 25 µM (hT2R5): 20 to 40%; inhibition at 25 µM (hT2R7; receptor activated to EC80 with agonist, read-out: inhibition of bitter receptor 7): 20 to 40%; inhibition at 25 µM (hT2R10; HEK293, read-out: inhibition of bitter receptor 10, compound at 25 μM, receptor activated to EC80 with agonist): 40 to 60%; inhibition at 25 µM (hT2R14 [2]; receptor activated to EC80 with agonist, read-out: inhibition of bitter receptor 14): > 80%; inhibition at 25 µM (hT2R16; receptor activated to EC80 with agonist, read-out: inhibition of bitter receptor 16): 20 to 40%; inhibition of bitter receptor 44 (hT2R44; [14]): +++ (60% to 80% inhibition = +++); inhibition at 25 µM (hT2R51): 40 to 60%; inhibition of bitter receptor 54 (hT2R54; [14]): + (20% to 40% inhibition = +); inhibition of bitter receptor 55 (hT2R55; [14]): ++++ (80% or greater inhibition = ++++); inhibition at 25 µM (hT2R61; receptor activated to EC80 with agonist, read-out: inhibition of bitter receptor 61): > 80%; inhibition of bitter receptor 63 (hT2R63; [14]): +++ (60% to 80% inhibition = +++); inhibition at 25 µM (hT2R64; receptor activated to EC80 with agonist, read-out: inhibition of bitter receptor 64): > 80%; inhibition of bitter receptor 65 (hT2R65; [14]): ++ (40% to 60% inhibition = ++); inhibition of bitter receptor 67 (hT2R67; [14]): + (20% to 40% inhibition = +); inhibition at 25 µM (hT2R71; receptor activated to EC80 with agonist, read-out: inhibition of bitter receptor 71): 60 to 80%
